These results are taken from ChEMBL document CHEMBL1201862, “PubChem BioAssay data set” (2004).

Some test systems named below: UO-31; IGROV-1; CCRF-CEM; UACC-62; SK-MEL-5; MOLT-4; COLO 205; SF-268; NCI-H522; OVCAR-5; DU-145; OVCAR-4; SNB-75; A549; 786-0; TK-10; MDA-N; KM12; EKVX; HCC 2998.
Common to all, as to assay: NCI tumour cell line growth inhibition, 48 h

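In this assay, cells in 96-well plates receive the compound at five concentrations for 48 hours. Endpoints are linearly interpolated between the surrounding concentrations. At the GI50, growth is halved.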 Activity calls are given as the source filed them. No stated cut-off is given here; in the data, active = GI50 up to about 1.1 µM and inactive = higher.

As for `COc1ccc2nc(NCN3C(=O)c4ccccc4C3=O)sc2c1`, the GI50 with UO-31, in the assay on IGROV-1, in the assay with CCRF-CEM, in the assay with UACC-62, with SK-MEL-5 and in the assay on MOLT-4 was > 100 µM (inactive) throughout. For the same molecule, the GI50 in the assay with COLO 205, in the assay with SF-268, in the assay with NCI-H522, in the assay with OVCAR-5, with DU-145 and in the assay on OVCAR-4 was > 100 µM (inactive) throughout. Further, the GI50 in the assay on SNB-75, in the assay with A549, in the assay on 786-0, in the assay with TK-10, in the assay on MDA-N and in the assay on KM12 was > 100 µM (inactive) throughout. For the same molecule, the GI50 in the assay on EKVX is > 100 µM (inactive).

As to `CCOC(=O)c1ccc(-c2cc(C)no2)[nH]1`, the GI50 in the assay with UO-31 was > 100 µM (inactive); in the assay on IGROV-1 it was > 100 µM (inactive); with CCRF-CEM, > 100 µM (inactive); with UACC-62, 59.8 µM (inactive); with SK-MEL-5, 81.3 µM (inactive); in the assay on MOLT-4 it was 42.1 µM (inactive). Besides, the GI50 in the assay on COLO 205 was 40 µM (inactive); in the assay with SF-268 it was > 100 µM (inactive); with NCI-H522, 76.2 µM (inactive); in the assay on OVCAR-5 it was > 100 µM (inactive); in the assay on DU-145 it was > 100 µM (inactive); in the assay with OVCAR-4, 74.6 µM (inactive). Further, the GI50 was 60.1 µM (inactive) in the assay on SNB-75; 51.5 µM (inactive) in the assay with A549; > 100 µM (inactive) in the assay on 786-0; > 100 µM (inactive) with TK-10; 22 µM (inactive) in the assay with MDA-N; 31.8 µM (inactive) in the assay on KM12. Besides, the GI50 with EKVX was 41.7 µM (inactive).

As for `CCN(CC)c1ccc2cc(-c3nnc(-c4ccccc4)[nH]3)c(=O)oc2c1`, the GI50 in the assay on UO-31 is 4.39 µM (inactive); in the assay on IGROV-1 it was 17.7 µM (inactive); in the assay with CCRF-CEM, 39.7 µM (inactive); in the assay with UACC-62, > 100 µM (inactive); with SK-MEL-5, > 100 µM (inactive); with MOLT-4, > 100 µM (inactive). Moreover, the GI50 in the assay with COLO 205 was > 100 µM (inactive); in the assay on SF-268 it was 62.8 µM (inactive); in the assay with NCI-H522, 18.7 µM (inactive); in the assay with HCC 2998 it was > 100 µM (inactive); with OVCAR-5, 28.2 µM (inactive); with DU-145, 14.8 µM (inactive). For the same molecule, the GI50 was 7.36 µM (inactive) in the assay with OVCAR-4; 68.5 µM (inactive) with A549; 14.3 µM (inactive) in the assay with 786-0; > 100 µM (inactive) with MDA-N; 40 µM (inactive) with KM12; 22.8 µM (inactive) in the assay on EKVX.

With `CC(=O)OC1[C@H](n2ccnc2)C[C@H]2[C@@H]3CC=C4CC(N5CCCC5)CC[C@]4(C)[C@H]3CC[C@]12C` (some centres not stated), the GI50 with UO-31 is 49.5 µM (inactive); in the assay on IGROV-1, 43.7 µM (inactive); in the assay with CCRF-CEM it was 25.6 µM (inactive); in the assay on UACC-62, 27.5 µM (inactive); in the assay on SK-MEL-5, 33 µM (inactive); in the assay on MOLT-4 it was 17.3 µM (inactive). Moreover, the GI50 was 23.7 µM (inactive) with COLO 205; 34.8 µM (inactive) with SF-268; 24.1 µM (inactive) in the assay on NCI-H522; > 100 µM (inactive) in the assay on OVCAR-5; > 100 µM (inactive) in the assay with DU-145; 87.3 µM (inactive) in the assay on OVCAR-4. The GI50 was > 100 µM (inactive) in the assay on SNB-75; 41.4 µM (inactive) with A549; 22.5 µM (inactive) with 786-0; 88.1 µM (inactive) in the assay on TK-10; 28.1 µM (inactive) with MDA-N; 58.3 µM (inactive) with KM12. The GI50 with EKVX was 70.1 µM (inactive).

`COc1cc2c(cc1OC)C1=CCC(c3ccccc3)[N+]1(C)CC2` (configuration not stated): the GI50 with UO-31 was > 100 µM (inactive); with IGROV-1 it was > 100 µM (inactive); in the assay with CCRF-CEM, > 100 µM (inactive); in the assay with UACC-62, > 100 µM (inactive); in the assay with SK-MEL-5 it was 78.5 µM (inactive); in the assay on MOLT-4, > 100 µM (inactive). In addition, the GI50 with COLO 205, in the assay on SF-268, in the assay on HCC 2998, with OVCAR-5, with DU-145 and in the assay on OVCAR-4 was > 100 µM (inactive) in each case. Also, the GI50 with SNB-75, with A549, in the assay on 786-0, with TK-10, with MDA-N and in the assay on KM12 was > 100 µM (inactive) in each case. The GI50 in the assay with EKVX was > 100 µM (inactive).

Regarding `c1ccc2c(c1)nc1ccccn12`, the GI50 in the assay with UO-31, in the assay with IGROV-1, in the assay on CCRF-CEM, in the assay on UACC-62, with SK-MEL-5 and in the assay with MOLT-4 was > 100 µM (inactive) each time. Also, the GI50 in the assay on COLO 205, in the assay with SF-268, in the assay on HCC 2998, in the assay with OVCAR-5, with DU-145 and with SNB-75 was > 100 µM (inactive) throughout. Moreover, the GI50 in the assay on A549, in the assay with 786-0, with TK-10, with MDA-N, with KM12 and with EKVX was > 100 µM (inactive) in each case.

In the case of `CN(C)CCCCCNc1c2ccccc2nc2cccc([N+](=O)[O-])c12`, the GI50 in the assay on IGROV-1 was 0.0022 µM (active); with CCRF-CEM, 0.024 µM (active); with UACC-62 it was 0.00183 µM (active); with SK-MEL-5 it was 0.00154 µM (active); in the assay on MOLT-4, 0.000807 µM (active); with COLO 205, 0.000524 µM (active). In addition, the GI50 in the assay on SF-268 is 0.00118 µM (active); in the assay on HCC 2998, 0.00331 µM (active); in the assay with OVCAR-5, 0.00182 µM (active); in the assay with DU-145, 0.000404 µM (active); with OVCAR-4, 0.000653 µM (active); in the assay on SNB-75 it was 0.00163 µM (active). Moreover, the GI50 in the assay on A549 was 0.000685 µM (active); in the assay on 786-0 it was 0.00133 µM (active); with TK-10 it was 0.00337 µM (active); in the assay with MDA-N it was 0.000187 µM (active); in the assay with KM12, 0.00957 µM (active); with EKVX, 0.00402 µM (active).

As to `O=c1[nH]c(=O)n(C2CC(O)C(CO)O2)cc1/N=N/NCc1ccccc1` (configuration not stated), the GI50 in the assay on UO-31, in the assay with IGROV-1, with CCRF-CEM, in the assay with UACC-62, in the assay on SK-MEL-5 and in the assay on MOLT-4 was > 100 µM (inactive) throughout. The GI50 in the assay on COLO 205 is > 10 µM (inactive); in the assay on SF-268, > 100 µM (inactive); with NCI-H522 it was > 100 µM (inactive); in the assay on OVCAR-5 it was > 100 µM (inactive); with DU-145, > 100 µM (inactive); in the assay with OVCAR-4, > 100 µM (inactive). Further, the GI50 with SNB-75, in the assay on A549, with 786-0, with TK-10, with MDA-N and with KM12 was > 100 µM (inactive) in each case. Moreover, in the assay with EKVX, the GI50 was > 100 µM (inactive).

Turning to `COc1cc(/C=C2\CCC/C(=C\c3ccc(OC(=O)CCCCC4CCSS4)c(OC)c3)C2=O)ccc1OC(=O)CCCCC1CCSS1` (configuration not stated), the GI50 was > 100 µM (inactive) in the assay on UO-31; > 100 µM (inactive) with IGROV-1; 91.2 µM (inactive) in the assay on CCRF-CEM; > 100 µM (inactive) in the assay with UACC-62; > 100 µM (inactive) in the assay on SK-MEL-5; > 100 µM (inactive) in the assay with MOLT-4. Also, the GI50 in the assay on COLO 205, in the assay on SF-268, in the assay on NCI-H522, in the assay with OVCAR-5, with DU-145 and in the assay on OVCAR-4 was > 100 µM (inactive) throughout. Besides, the GI50 with SNB-75, in the assay on A549, with 786-0, in the assay with TK-10, with MDA-N and with KM12 was > 100 µM (inactive) in each case. In the assay on EKVX, the GI50 was > 100 µM (inactive).

`COc1cc(/C=C2\C[C@H]3[C@@H]4CCc5cc(OCCN6CCCC6)ccc5[C@H]4CC[C@]3(C)C2=O)cc(OC)c1OC`: the GI50 in the assay on UO-31 was 1.54 µM (inactive); in the assay on IGROV-1 it was 1.57 µM (inactive); in the assay on UACC-62, 2.52 µM (inactive); in the assay with SK-MEL-5 it was 1.53 µM (inactive); in the assay on MOLT-4, 1.31 µM (inactive); in the assay on COLO 205, 1.48 µM (inactive). Further, the GI50 is 1.83 µM (inactive) in the assay with HCC 2998; 1.67 µM (inactive) in the assay with OVCAR-5; 1.87 µM (inactive) with DU-145; 1.6 µM (inactive) in the assay on OVCAR-4; 1.69 µM (inactive) with A549; 1.85 µM (inactive) with 786-0. Further, the GI50 in the assay on TK-10 was 2.53 µM (inactive); in the assay on MDA-N, 1.67 µM (inactive); with KM12 it was 1.69 µM (inactive); in the assay with EKVX, 2.39 µM (inactive).

`O=C1NC2CCCCC2N=C1CC(=O)c1ccc(Br)cc1` (configuration not stated): the GI50 in the assay with UO-31 is 3.86 µM (inactive); with IGROV-1 it was 5.22 µM (inactive); in the assay with CCRF-CEM, 5.2 µM (inactive); with UACC-62 it was 4.57 µM (inactive); in the assay on SK-MEL-5 it was > 100 µM (inactive); in the assay on MOLT-4 it was 5.61 µM (inactive). The GI50 with COLO 205 is > 100 µM (inactive); with SF-268 it was 28.6 µM (inactive); with NCI-H522, 3.05 µM (inactive); in the assay on HCC 2998 it was 39 µM (inactive); with OVCAR-5 it was > 100 µM (inactive); with DU-145, > 100 µM (inactive). Also, the GI50 was 6 µM (inactive) with A549; 64.1 µM (inactive) in the assay with 786-0; 74.5 µM (inactive) in the assay on TK-10; > 100 µM (inactive) in the assay on MDA-N; > 100 µM (inactive) with KM12; 17.8 µM (inactive) with EKVX.
